Reference: paper PMC5116089, “Sulfheme formation during homocysteine S-oxygenation by catalase in cancers and neurodegenerative diseases” (Nature Communications, 2016)
Blank lines part the entries; values can stand above or below the molecule they belong to.

Target: T1, Bovine liver catalase (Bos taurus, UniProt P00432)
T1 construct: Bovine liver catalase was also purchased from Sigma-Aldrich; purchased Sigma-Aldrich; host or cells: bovine liver
T1 sequence (P00432 2-527 limits assumed): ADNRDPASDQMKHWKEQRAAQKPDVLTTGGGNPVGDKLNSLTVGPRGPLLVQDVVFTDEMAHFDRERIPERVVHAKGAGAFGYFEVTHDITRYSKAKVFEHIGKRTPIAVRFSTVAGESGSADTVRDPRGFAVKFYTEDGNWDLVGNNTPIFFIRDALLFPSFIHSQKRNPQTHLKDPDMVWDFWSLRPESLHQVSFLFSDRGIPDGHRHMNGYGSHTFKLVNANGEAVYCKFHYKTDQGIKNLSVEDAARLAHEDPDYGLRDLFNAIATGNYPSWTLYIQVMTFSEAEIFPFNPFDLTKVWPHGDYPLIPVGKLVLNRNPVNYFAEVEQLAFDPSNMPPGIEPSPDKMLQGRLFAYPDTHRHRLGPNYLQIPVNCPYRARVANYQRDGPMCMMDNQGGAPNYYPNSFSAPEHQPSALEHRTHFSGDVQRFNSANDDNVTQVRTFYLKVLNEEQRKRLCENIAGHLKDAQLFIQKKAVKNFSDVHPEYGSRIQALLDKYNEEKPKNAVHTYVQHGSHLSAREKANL
Test: Ultraviolet-visible spectral changes and HPLC-MS of extracted heme after reaction of CAT with thiols
Assay type: biochemical
Description: Ultraviolet–visible spectra were recorded on a Cary 300 Scan or an Uvikon 941 spectrophotometer equipped with a temperature equilibrating water bath (±1 °C). Spectral changes over time were recorded when CAT was incubated with L-HCys (0.2 or 2 mM), L-Cys (0.2, 2 or 9 mM) or GSH (1 or 30 mM) at 25 °C in a 1 ml quartz cuvette containing a solution of CAT (2.7–5.9 μM) in 50 mM KPi, pH 7.4±1 mM DTPA. Due to half-site reactivity of biological thiols with CAT, the data were recorded versus a blank containing half the concentrations of CAT used in the experiments, that is, a solution of 1.35–2.95 μM CAT in 50 mM KPi at pH 7.4±1 mM DTPA. Reactions were initiated by addition of the thiol-containing compounds. Comparative kinetic studies were performed by incubating CAT ([…] in the experiment, 1.35–1.5 μM in the blank) with 2 mM L-HCys in 50 mM KPi, pH 7.4, 1 mM DTPA with or without […], 5,5-dimethyl-1,3-cyclohexanedione (dimedone, 4 mM), BCN (0.1 mM) or SOD, 40 U). All the experiments were performed at least in duplicate.
HPLC–MS or –HRMS spectra of the prosthetic heme-iron group were recorded on a Thermo-Finnigan Surveyor or a Thermos Fisher Accela equipped with an XTerra MS C18 3.5 μm (2.1 × 50 mm) and a pre-guard column coupled to an ESI LCQ Advantage or an Exactive orbitrap spectrometer, respectively. The prosthetic heme group was extracted on ice by incubating a solution of CAT (5–8 μM) with 1.65 volume of 50 mM Gly-HCl pH 2.0 and 2.65 vol of butan-2-one kept a −20 °C. After vigorous mixing and a short centrifugation step (13,000 r.p.m., 4 °C, 30 s), the upper organic phase was quickly removed and mixed with a solution of 2 M imidazole (10% v/v) to stabilize the extracted cofactor and permit analysis. […] Control experiments (CAT, thiol-compounds and additives alone as well CAT and additives or thiol-compounds and additives) were performed in each instance and analysed in parallel.

SMILES: N[C@@H](CS)C(=O)O [Cys, cysteine]
heme-iron species formed from CAT (physiological concentration of Cys (200 μM) in the presence of iron, no DTPA): only leads to the reversible formation of compound II

heme-iron species formed from CAT (GSH (30 mM)): compound II formation was only observed
SMILES: N[C@@H](CCC(=O)N[C@@H](CS)C(=O)NCC(=O)O)C(=O)O [GSH, glutathione]

SMILES: NC(CCS)C(=O)O (stereo not drawn) [HCys, homocysteine]
heme-iron species formed from CAT (2 mM HCys, 1 mM DTPA, pH 7.4, 25 °C): induces the production of a sulfheme species
